US9920357B2, “Systems and methods for identifying cosmetic agents for hair/scalp care compositions” (The Procter & Gamble Company, priority 2012, dated 2018)

Tests used:
hair count = experiment: Clinical studies of hair count; type: in vivo
MAOB [1] = molecular target: T1, MAOB (Homo sapiens, UniProt P27338); experiment: MAOB enzyme inhibition assay; type: biochemical; settings: active = >=40% inhibition and dose response
T1 sequence (P27338 1-520): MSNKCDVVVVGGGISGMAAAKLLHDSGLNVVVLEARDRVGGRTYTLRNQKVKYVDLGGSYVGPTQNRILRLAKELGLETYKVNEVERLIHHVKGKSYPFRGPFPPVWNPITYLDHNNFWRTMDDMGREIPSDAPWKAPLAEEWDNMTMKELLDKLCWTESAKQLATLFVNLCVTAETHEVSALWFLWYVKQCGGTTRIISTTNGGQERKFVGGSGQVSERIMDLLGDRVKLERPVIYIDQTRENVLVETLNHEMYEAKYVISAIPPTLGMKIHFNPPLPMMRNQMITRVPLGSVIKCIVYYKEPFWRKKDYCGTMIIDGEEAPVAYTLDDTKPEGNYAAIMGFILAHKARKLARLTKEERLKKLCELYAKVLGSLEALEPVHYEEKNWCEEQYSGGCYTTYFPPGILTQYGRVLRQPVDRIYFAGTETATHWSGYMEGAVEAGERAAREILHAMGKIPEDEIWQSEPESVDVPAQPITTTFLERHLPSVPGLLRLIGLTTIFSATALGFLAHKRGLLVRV
Description: (§1) Affy signatures yielded 60 materials that were plated and provided for evaluation in a MAOB enzyme inhibition assay and 46 pure material were tested in a MAOB reporter assay.

MAOB [2] = experiment: MAOB reporter assay; type: cell-based; settings: active = >=60% inhibition and dose response
Description: as §1

| activity in MAOB enzyme inhibition assay (MAOB [1]) | SMILES | hair count (hair count) | activity in MAOB reporter assay (MAOB [2]) |
| --- | --- | --- | --- |
|  | O=c1cc(-c2ccc(O)cc2)oc2cc(O)cc(O)c12 [Apigenin] | significant hair count benefit |  |
| active and hit | CCN(CC)CCCC(C)Nc1c2ccc(Cl)cc2nc2ccc(OC)cc12 (stereo not drawn) [quinacrine] |  | active and hit |
